According to patent publication US12064444B2, “Application of tannic acid in preparation of medicament against respiratory viruses” (priority 2020, dated 2024):

Tested on: SARS-CoV-2 virus

With `CCC(CC)COC(=O)[C@H](C)N[P@](=O)(OC[C@H]1O[C@@](C#N)(c2ccc3c(N)ncnn23)[C@H](O)[C@@H]1O)Oc1ccccc1` [Remdesivir] the “SI (Selection Index = TC50/IC50)” value was 162.21.

In the case of `O=C(OC[C@H]1O[C@@H](OC(=O)c2cc(O)c(O)c(OC(=O)c3cc(O)c(O)c(O)c3)c2)[C@H](OC(=O)c2cc(O)c(O)c(OC(=O)c3cc(O)c(O)c(O)c3)c2)[C@@H](OC(=O)c2cc(O)c(O)c(OC(=O)c3cc(O)c(O)c(O)c3)c2)[C@@H]1OC(=O)c1cc(O)c(O)c(OC(=O)c2cc(O)c(O)c(O)c2)c1)c1cc(O)c(O)c(OC(=O)c2cc(O)c(O)c(O)c2)c1` [Tannic acid, tannic acid], the “SI (Selection Index = TC50/IC50)” value is reported as 7343.75.
